# Data: a melting point compilation (Tetko et al.; mined from patent text by program, amines drawn as free bases though some values may be those of a salt)
row,melting point,SMILES
1,258 to 259 °C,COc1cc(Cc2n[nH]c3c2c(=O)n(-c2ccccc2)c2ncccc32)cc(OC)c1
2,295 °C,CC(=O)Nc1nc(N)c2ncn(C3OC(C(O)C(=O)O)C(O)C3O)c2n1 (stereo not given)
3,165 to 166 °C,Cc1nnc(-c2ccc3occ(-c4cnn(Cc5ccccc5C(F)(F)F)c4)c3c2)o1
4,101 °C,Cc1cccc2nnc(-c3ccccc3)cc12
5,200 to 201 °C,COC(=O)C(C)(C)c1ccc(C(=O)Nc2cn3cc(-c4ccsc4)ccc3n2)cc1
6,57.5 °C,CCCCC[C@H]1CC[C@H](CCc2ccc(-c3ccc(Br)cc3F)cc2)CC1
7,115 to 118 °C,Nc1ccc(Cc2ccc(CS(=O)(=O)NCc3ccccc3)cc2)cc1
8,139 to 140 °C,CCCCN1CCSC1S(=O)(=O)N=NC(=O)Nc1nc(OC)cc(OC)n1 (stereo not given)
9,83 °C,CN1CCc2c(Br)sc(Br)c2C(c2ccccc2)C1 (stereo not given)
10,121 °C,Cc1ccnc(-c2cccc(Oc3ccccc3C)n2)n1
11,150 °C,Cc1ccc(C(N)(c2ccc3c(c2)c(-c2cccc(Cl)c2)nc2nnnn23)c2cncn2C)cc1 (stereo not given)
12,106 to 108 °C,C#CC[C@H]1CC[C@H](CO)CC1
13,122 to 123 °C,CNC(=O)c1ccccc1Sc1ccc(C)cc1[N+](=O)[O-]
14,162 to 165 °C,CC(=O)Nc1nc2c(ncn2COCC(COC(C)=O)OC(C)=O)c(=O)[nH]1 (stereo not given)
15,76 to 78 °C,FC(F)(F)CSC1(c2cccc(OCc3ccc4ccccc4c3)c2)CCOCC1
16,221 to 222 °C,COC(=O)c1ccc(C(=O)Nc2cc3c4c(c2)CCCC4CCC3)s1
17,106 °C,CN(CCNC(=NCCCOc1cccc(CN2CCCCC2)c1)NC#N)CCN(Cc1ccc(F)cc1)c1ccccn1
18,265 to 268 °C,Nc1ncnc2c1ncn2OCCCCP(=O)(O)O
19,263 °C,CS(=O)(=O)c1cccc(NC(=O)c2cnn3c(C(F)(F)F)cc(-c4ccc(Cl)c(Cl)c4)nc23)c1
20,74.5 to 76 °C,CC1(c2ccccc2)OC(C=Cc2ccccn2)=CC1=O (stereo not given)
21,196 to 198 °C,CCCCCCCNC(=O)c1ccccc1CN1C(=O)C2(COc3cc4c(cc32)CCO4)c2ccccc21 (stereo not given)
22,122 to 125 °C,O=S(=O)(c1ccc(O)cc1)N1CCCC1
23,181 °C,CC(=O)Nc1cc(C(C)(C)C)c(SC2=C(O)CC(CCc3ccc(O)cc3)(C3CCCC3)OC2=O)cc1C (racemic)
24,202 to 203 °C,CCn1c(=O)c2c(nc(/C=C/c3cccc(OC)c3OC(C)=O)n2C)n(CC)c1=O
25,271 to 278 °C,Cc1cccc(Cc2ccc(-c3cnn4c(O)ncnc34)cc2)c1
26,169 to 170 °C,Cc1nonc1-n1cc(C(=O)O)c(=O)c2cc(F)c(N3CC[C@H](N)C3)c(F)c21
27,125 to 126 °C,CC(=O)N1Cc2cccc3c2c(cn3C)C1
28,227 to 230 °C,CCN1CCN(c2ccc(Nc3cc(-c4cnc5cc[nH]c5c4)cn4ccnc34)nc2)CC1
29,279 °C,CNC(=O)C1CCN(c2cc(-c3ccc(Cl)cc3)nc3ccc(F)cc23)CC1

# The remaining lines, values behind:
row,SMILES,melting point
1,CN(C)C(=O)COC(=O)c1cc(S(N)(=O)=O)c(Cl)cc1NCc1ccco1,193 to 194 °C
2,COC(=O)c1cccn1Cc1ccccc1[N+](=O)[O-],105 to 107 °C
3,Cn1nc(C(=O)C(=O)c2ccccc2)ccc1=O,89 to 92 °C
4,COC(=O)CC(=O)NC(C)(C)CC(C)(C)C,74 to 75 °C
5,CCCCc1cc2cc(NS(C)(=O)=O)ccn2c1C(=O)c1ccc(OCCCN(CCCC)CCCC)cc1,87 to 88 °C
6,CCCC1=C(C(=O)OCC)C(c2cccc([N+](=O)[O-])c2)C(C(=O)OCC)=C(CCC)N1COCC,109 to 110 °C
7,Cc1c(C(=O)O)nnn1Cc1c(F)cccc1F,166 to 167 °C
8,N#CC(C=CC=O)=C(c1ccc(F)cc1)c1ccc(F)cc1,155 to 156 °C
9,CC(=O)CCc1ccc(C(N)=O)cc1,152 to 154 °C
10,Nc1nnn(CC(F)(F)F)n1,95 to 97 °C
11,O=c1oc2ccccc2c(OCCCN2CCOCC2)c1-c1ccccc1,82 °C
12,NS(=O)(=O)c1ccc(NN=C2C(=O)Nc3ccc(C(=O)NCCCO)cc32)cc1,> 230 °C
13,CON(C)C(=O)C1(C)CCc2c(C)c(O)c(C)c(C)c2O1 (stereo not given),139 to 140 °C
14,O=CNC1Cc2cc(Br)cc([N+](=O)[O-])c2NC1=O (stereo not given),232 to 235 °C
15,C=C1CN(c2ccccc2)C1=O,57 to 58 °C
16,CN(C)C(=O)Oc1cccc2c1CC[C@H]1[C@H]2CCN1CCC1CCCCC1,110 to 112 °C
17,CCN(CC)CCN1C(=O)c2cc(OC)c3[nH]c4ccc(O)cc4c3c2C1=O,226 to 228 °C
18,Cn1c2ccccc2c2c3c(c4c5ccccc5n(CCCCN)c4c21)C(=O)NC3=O,177 to 181 °C
19,COCOc1cccc(ON=C(C)C)c1C#N,62 to 64 °C
20,Cc1oc(-c2ccccc2)nc1COc1ccc(Cn2cc(C(=O)O)c(-c3cccs3)n2)cc1,204 to 205 °C
21,CC(C)(C)C(NC(=O)c1ccc(Cl)cc1)NC(=NC#N)Nc1c(F)cccc1F (stereo not given),211 to 213 °C

row,SMILES,melting point
1,O=C(C1CCCCC1)N1C=C2c3ccccc3CCN2C(=O)C1,136 to 138 °C
2,Cc1cc([N+](=O)[O-])ccc1NC(=O)C1=C(O)N(C)S(=O)(=O)c2sccc21,189 to 191 °C
3,C#CCC(C1=Nc2cnccc2C(=O)C1Nc1ccccc1)N(CCCNC(=O)OCc1ccccc1)C(=O)c1cccc(Cl)c1F (stereo not given),100 to 102 °C
4,C1=C(CCc2ccccc2)CCN(Cc2c[nH]c3ccccc23)C1,138 to 140 °C
5,CCC(O)c1cccc(S(N)(=O)=O)c1 (stereo not given),218 to 220 °C
6,Nc1ncc(C2OC(CO)C(O)C2O)c(Cl)n1 (stereo not given),195 to 197 °C
7,CC(=O)OC1CSC(Oc2cccnc2)C(OC(C)=O)C1OC(C)=O (stereo not given),147 °C
8,O=C(N[C@H]1CC[C@H](CCN2CCN(c3nccc4c3CCO4)CC2)CC1)c1ccc(N2CCCCC2)cc1,214 °C
9,c1ccc(C(c2ccccc2)N2CCCC2)cc1,69 to 72 °C
10,CS(=O)(=O)c1ccc(N2CC(O)(C(F)(F)F)N=C2c2ccc3c(c2)OCO3)cc1 (stereo not given),200 to 202 °C
11,C=CCOc1ncc(F)c(O)n1,138 to 141 °C
12,COc1c(Br)c(-c2cc(C(C)C)n(C)n2)cc2oc(=O)c(C)c(C)c12,177 to 179 °C
13,CCc1cc(Nc2ccc(C(Cc3ccccc3)C(=O)O)cc2)n2nccc2n1 (stereo not given),195 to 197 °C
14,CCCCCCCCCCCCCCSc1ccc(C(=O)O)o1,84 to 86 °C
15,C=CCOc1cc(CNc2nc(C)nc(C)c2Cl)ccc1OCc1ccccc1,94 to 96 °C
16,CCc1cc(C(F)(C(F)(F)F)C(F)(F)C(F)(F)F)cc(C)c1NC(=O)c1cccc(NC(=O)c2ccc(C#N)cc2C)c1OC (stereo not given),104 to 105 °C
17,NC(=NC(=O)Cn1c(Cl)ccc1Cl)NC(=O)Cc1ccccc1,181 to 183 °C
18,O=C1C(=O)c2c(nc3ccc(Cl)cn23)-c2cccc(Cl)c21,> 260 °C
19,CCCCn1c(C)c(Br)c(=O)c(C(=O)Nc2ccc(Br)cc2C)c1C,190 to 192 °C
20,CS(=O)(=O)c1ccc(-c2sc(COc3ccccc3Cl)nc2-c2ccc(F)cc2)cc1,189 to 191 °C
